Experimental data: patent publication US20150374784A1, “COMPOSITIONS AND METHODS FOR REDUCING GERM CELL DEATH” (Los Angeles Biomedical Research Institute at Harbor-UCLA …, priority 2014, published 2015)
Counter-ions that a name gives are not always drawn.

Legend:
cells = conditions: Table 1, description of analogs; cited from earlier work
[1] = test system: IGFBP-3, membrane receptor, BAX, HN; conditions: Table 1, description of analogs; cited from earlier work
male germ cells [2] = format: in vivo, mouse; conditions: for effect of adding the analog on the preventive effect of HN against CP-induced germ cell apoptosis: each peptide 40 mg/kg BW; for spontaneous germ cell apoptosis, peptide alone: single IP, 24 hours, no CP; for effect on CP-induced germ cell apoptosis, early+late stages / inhibition of (protection against) CP-induced germ cell apoptosis, early+late stages: stages I-IV and XI-XII; for effect on CP-induced germ cell apoptosis, early+late stages / effect on CP-induced germ cell apoptosis, middle stages: 40 mg/kg BW; for inhibition of (protection against) CP-induced germ cell apoptosis, early+late stages: HN, HN-C8P 40 mg/kg BW
Method: (§1) For the HN analog experiments, male mice were divided into seven groups (n=4-5 per group) and received one of the following treatments and sacrificed after 24 hours: 1) vehicle (control); 2) a single intra-peritoneal (IP) injection of HN peptide [HN, 40 mg/Kg body weight (BW)]; 3) a single IP injection of CP (CP, 200 mg/Kg BW); 4) IP injection of CP and HN (CP+HN); 5) a single IP injection of each HN analog (HNG 5 mg/Kg BW, HNG-F6A 5 mg/Kg BW, HN-S7A 40 mg/Kg BW, HN-C8P 40 mg/Kg BW, or HN-L12A 40 mg/Kg BW); 6) IP injection of CP and each HN analog (CP+HNG, HNG-F6A, HN-S7A, HN-C8P, or HN-L12A); and 7) IP injection of CP+HN+HN analog (HN-S7A, HN-C8P, or HN-L12A; to assess whether the analogs has enhancing or inhibitory effect on HN).
(§2) To facilitate testicular fixation by using a whole-body perfusion technique, all animals were injected with heparin (130 IU/100 g BW, IP) 15 min before a lethal injection of sodium pentobarbital (200 mg/kg BW, IP) (Lue Y H, et al., 1999). One testis was removed and weighed after perfusion with saline. Portions of testicular parenchyma were snap frozen in liquid nitrogen, and stored at −80 C for Western blotting. The other testis was fixed by vascular perfusion with Bouin's solution, and processed with routine paraffin embedding for in situ detection of apoptosis.
Detection of apoptotic cells was performed in Bouin's′-fixed, paraffin-embedded testicular sections by the terminal deoxynucleotidyl transferase (TdT)-mediated deoxy-UTP nick end labeling (TUNEL) technique (Sinha Hikim A P, et al., 1997) using an ApopTag-peroxidase kit (Chemicon International, Inc., Temecula, Calif.). Enumeration of the Sertoli cell nuclei with distinct nucleoli and apoptotic germ cell population was quantified at stages I-IV (early stages), stages VII-VIII (middle stages) and stages XI-XII (late stages) of the seminiferous epithelial cycle using an Olympus BH-2 microscope (New Hyde Park, N.Y.). Stages were identified according to the criteria proposed by Russell et al for paraffin sections (Russell L, 1977). The rate of germ cell apoptosis (apoptotic index, AI) was expressed as the number of apoptotic germ cells per Sertoli cells (Sinha Hikim A P, et al., 1997).

STAT3 = STAT3 phosphorylation in testis by western blot; format: in vivo, mouse; conditions: testis homogenates; for STAT3 phosphorylation (phosphorylated STAT3/STAT3) compared with control: treatment alone; for CP suppressed STAT3 (Ser727) phosphorylation: with CP 200 mg/Kg
Method: as §1, §2
Western blotting was performed as described previously (Jia Y, et al., 2009). In brief, proteins were denatured and separated by sodium dodecyl sulfate-polyacrylamide gel electrophoresis (SDS-PAGE) system (Invitrogen, Carlsbad, Calif.). After transferring, the Immuno-blot PVDF Membrane (Bio-Rad, Hercules, Calif.) was blocked for 1 h and then probed using anti-STAT3 or anti-pSer727 STAT3 (Cell signaling Technology, Inc., Beverly, Mass.) overnight at 4 C with constant shaking. After washing, membrane was then incubated with an anti-mouse (for STAT3 antibody, Santa Cruz Biotechnology, Santa Cruz, Calif.) or anti-rabbit (for pSer727 STAT3 antibody, Amersham Biosciences, Piscataway, N.J.) IgG-HRP secondary antibody. All antibodies were diluted in blocking buffer. For immunodetection, membrane was incubated with enhanced chemiluminescence solutions per the manufacturer's specifications (Amersham Biosciences, Piscataway, N.J.), and exposed to Hyperfilm ECL (Denville Scientific Inc., Metuchen, N.J.).

B16 melanoma cells = format: cell-based; conditions: B16 cells in culture
Text: Furthermore, the autophagy induction of humanin may be related to its apparent effects of enhancing longevity observed in other systems.

Leydig cells = assay: Leydig cell depletion and testosterone levels in rats; format: in vivo, rat
male germ cells [3] = conditions: EDS 80 mg/kg IP 3 days before; CP 70 mg/kg BW
[4] = test system: germ cells in seminiferous tubules; assay: Germ cell apoptosis in mouse seminiferous tubule cultures ex vivo (TUNEL); format: cell-based; conditions: 12 hours; for germ cell apoptosis (number of apoptotic germ cells) compared to control: DOX 10 μM (high dose), hydrochloride
Method: A total of 15 young adult (12-13 week-old) mice were used for these ex vivo studies. The animals were sacrificed with a 5% pentobarbital (200 mg/Kg) IP injection. Testes were dissected and after removing the tunica albuginea, seminiferous tubules isolated from testes were cut into small segments under a dissecting microscope and light and dark segments were separated by dissection. Ten to twelve segments were placed (2 mm in length) in each well on a six well plate with 2 ml serum free Ham F-10 culture medium (GIBCO, Life Technologies, Thermo Fisher Scientific Corp., Carlsbad, Calif.) with the following treatments: control (Con, n=10), heat (43° C., 15 minutes, used as a positive control, n=10); HN 10 μg/mL (n=9); DOX 10 mcM (Dox10, n=10); and DOX 10 mcM+Humanin 10 μg/mL (Dox10+HN, n=10). For these experiments, n represents the total number of times the treatment was repeated using different animals. After 12 hours of incubation at 34° C. the seminiferous tubules from each treatment group were used to make “squashed” seminiferous tubule samples on a slide for TUNEL (TdT-mediated dUTP nick-end labeling) assay to detect germ cell apoptosis (Erkkila, et al., 1997; Toppari & Parvinen, 1985). To quantify the rate of germ cell apoptosis under a light microscope at 400× magnification, a square grid fitted within the eyepiece provided a reference area of 62,500 μm^2. The TUNEL positive apoptotic germ cells within the frame of grid were counted in 4 segments of seminiferous tubules in each group. The incidence of germ cell apoptosis was expressed as the number of apoptotic germ cells per mm^2.
A total of 15 mice were used for ex vivo studies. The animals were sacrificed and seminiferous tubules isolated from testes were cut into small segments under a dissecting microscope to identify light (early stages I-IV and late stages XI-XII) of the seminiferous epithelium) and dark (middle stages VII-VIII) segments. Ten to twelve light segments (2 mm in length) were placed per well on a six well plate with 2 ml serum free medium of F-10 Ham nutrient mixture (Gibco, Life Technologies, Grand Island, N.Y.) following these treatments: control (Con, n=15 where n is the number of times the treatment was repeated with segments obtained from different donor animals), heat (43° C., 15 min.; used as a positive control, n=10), HN 10 μg/mL (HN, n=9), doxorubicin 1 μM (Dox1, n=7), doxorubicin 1 μM+HN 10 μg/mL (Dox1+HN, n=7), doxorubicin 10 μM (Dox10, n=10), and doxorubicin 10 μM+HN 10 μg/mL (Dox10+HN, n=10). After 12 hours of incubation at 34° C. with 5% CO2, the seminiferous tubules from the seven treatment groups were used to make “squashed” seminiferous tubule preparations on a slide for TUNEL assay to detect germ cell apoptosis (Erkkila K, et al., 1997). To quantify the rate of germ cell apoptosis, the squashed segments of seminiferous tubules were examined with an American Optical Microscope (Scientific Instruments, Buffalo, N.Y.) with a 40×objective and a 10×eyepiece lens. A square grid fitted within the eyepiece provided a reference area of 62,500 μm^2. The TUNEL positive apoptotic germ cells within the frame of grid were counted in 4 segments of seminiferous tubules in each group. The incidence of germ cell apoptosis was expressed as the number of apoptotic germ cells per mm^2.

[5] = rats, EDS 80 mg/kg, CP 70 mg/kg BW, HN 40 mg/kg BW, with or without EDS pre-treatment

Compound | Cytoprotective Action (cells) | Characteristics [1] | effect of adding the analog on the preventive effect of HN against CP-induced germ cell apoptosis (male germ cells [2]) | spontaneous germ cell apoptosis, peptide alone (male germ cells [2]) | effect on CP-induced germ cell apoptosis, early+late stages (male germ cells [2]) | effect on CP-induced germ cell apoptosis, middle stages (male germ cells [2]; stages VII-VIII) | other results
MAPRGFSPLLLLTSEIDLPVKRRA [HN-C8P] | Not effective, blocks intracellular HN | Loss of BAX binding | did not change the preventive effect of HN | did not change the spontaneous germ cell apoptosis | showed less protection against CP-induced apoptosis | no significant effect in middle (VII-VIII) stages | inhibition of (protection against) CP-induced germ cell apoptosis, early+late stages (male germ cells [2]; HNG, HNG-F6A 5 mg/kg BW): ~30%; STAT3 phosphorylation (phosphorylated STAT3/STAT3) compared with control (STAT3): did not change STAT3 phosphorylation; CP suppressed STAT3 (Ser727) phosphorylation (STAT3): restored CP-induced Ser 727-phosphorylation of STAT3
CCN(CC)CCCC(C)Nc1ccnc2cc(Cl)ccc12 (stereo not drawn) [chloroquine] |  |  |  |  |  |  | additive effect of humanin in doxorubicin treated B16 cells, with autophagy inhibitor (B16 melanoma cells): diminished the additive effect of humanin
HN-L12A: HN with a substitution of alanine for 12th leucine, HN antagonist dimerizes with HN preventing HN binding to receptor (MAPRGFSCLLLATSEIDLPVKRRA) | HN antagonist, forms inactive dimer |  | completely blocked the preventive effect of HN | did not change the spontaneous germ cell apoptosis | unable to rescue | unable to rescue | 
MAPRGASCLLLLTSEIDLPVKRRA [HN-F6A] | Similar/more effective than HN. | Loss of IGFBP-3 binding |  |  |  |  | 
MAPRGFACLLLLTSEIDLPVKRRA [HN-S7A] | Not effective, prevents HN self- | Loss of membrane receptor | did not change the effect of HN on CP-induced apoptosis | did not change the spontaneous germ cell apoptosis | inhibited | had better protective effect than HN | STAT3 phosphorylation (phosphorylated STAT3/STAT3) compared with control (STAT3): did not change STAT3 phosphorylation; CP suppressed STAT3 (Ser727) phosphorylation (STAT3): restored CP-induced Ser 727-phosphorylation of STAT3
Cn1cnc(N)c2ncnc1-2 [3-MA] |  |  |  |  |  |  | additive effect of humanin in doxorubicin treated B16 cells, with autophagy inhibitor (B16 melanoma cells): diminished the additive effect of humanin
MAPRGASCLLLLTGEIDLPVKRRA [HNG-F6A] |  |  |  | did not change spontaneous germ cell apoptosis |  |  | inhibition of (protection against) CP-induced germ cell apoptosis, early+late stages (male germ cells [2]; HNG, HNG-F6A 5 mg/kg BW): ~38%; prevention of CP-induced germ cell apoptosis, middle stages (male germ cells [2]; stages VII-VIII, HNG, HNG-F6A 5 mg/kg BW): ~42%
CS(=O)(=O)OCCOS(C)(=O)=O [EDS, ethane dimethanesulfonate] |  |  |  |  |  |  | Leydig cells in the interstitial spaces (testis histology) (Leydig cells; EDS for three days): depletion of Leydig cells; intratesticular testosterone levels (Leydig cells; [5]): decreased to very low levels; serum testosterone levels (Leydig cells; [5]): decreased to very low levels; germ cell apoptosis at early (I-VI) and late (IX-XIV) stages, EDS pre-treated rats, compared to control (male germ cells [3]): did not significantly increase germ cell apoptosis; germ cell apoptosis in middle (VII-VIII) stages, EDS pre-treated rats (male germ cells [3]): had significant acute cytotoxic effects on germ cells
COc1cccc2c1C(=O)c1c(O)c3c(c(O)c1C2=O)C[C@@](O)(C(=O)CO)C[C@@H]3O[C@H]1C[C@H](N)[C@H](O)[C@H](C)O1 [DOX, doxorubicin hydrochloride, reference compound] |  |  |  |  |  |  | germ cell apoptosis (number of apoptotic germ cells) compared to control [4]: significantly higher number of apoptotic germ cells; germ cell apoptosis (number of apoptotic germ cells) compared to control ([4]; listed as doxorubicin): significantly increased apoptosis; germ cell apoptosis compared with control ([4]; doxorubicin 1 μM (low dose)): increased apoptosis but did not reach statistical difference
MAPRGFSALLLLTSEIDLPVKRRA [HN-C8A, HN mutant, Cys8 to Ala] | Not effective, prevents HN self- | Loss of membrane receptor |  |  |  |  | 
